Where a SMILES comes first, the peptide text is derived from it.
What was measured:
SH-SY5Y cells [1] = assay: Whole genome mRNA microarray; type: cell-based, human; conditions: FDR<0.1; for differentially expressed transcripts (DETs): cells treated for 4 hours
Protocol: (§1) The changes in SAM/SAH could potentially affect global DNA methylation, influencing the genes involved in various functions. The global DNA methylation levels induced by BCM-7 were investigated using methyl-CpG binding domain (MBD) protein-enriched genome sequencing (MBD-seq) as described previously (Trivedi M., et al., Mol. Pharm. 2014), whereas mRNA translation microarray data was obtained using Agilent V3 microarray chip, from non-treated control SH-SY5Y cells and cells treated for 4 hours with 1 μM BCM-7.
For whole genome microarray hybridisations, 500 ng of total RNA from each sample was labelled with fluorescent dye (Cy3; Amersham Biosciences Corp, Piscataway, NJ) using the Low RNA Input Linear Amplification Labelling kit (Agilent Technologies, Palo Alto, CA) following the manufacturer's protocol. The amount and quality of the fluorescently labelled cRNA was assessed using a NanoDrop ND-1000 spectrophotometer and an Agilent Bioanalyzer. According to manufacturer's specifications, […] of Cy3-labeled cRNA was hybridized to the Agilent Human Whole Genome Oligo Microarray (Agilent Technologies, Inc., Palo Alto, CA) for 17 hrs prior to washing and scanning. Data was extracted from scanned images using Feature Extraction Software (Agilent Technologies, Inc., Palo Alto, CA).
Transcripts included both genes and non-coding RNAs that were differentially methylated/transcribed.

SH-SY5Y neuronal cells = assay: Intracellular cysteine, GSH and methylation metabolites by HPLC; type: cell-based, human
Protocol: Briefly, SH-SY5Y neuronal cells were grown to confluence in α-MEM. Media was aspirated and the cells were washed twice with 1 mL of ice cold HBSS. HBSS was aspirated and 0.6 mL ice cold dH2O was added to the cells. The cells were scraped from the flask/dish and suspended in dH2O. The cell suspension was sonicated for 15 s on ice and 100 μL of the suspension was used to determine the protein content. The remaining lysate was added to a microcentrifuge tube and an equal volume of 0.4 N perchloric acid was added, followed by incubation on ice for 5 min. Samples were centrifuged at 5,000×g and the supernatant transferred to new microcentrifuge tubes. 100 μL of sample was added to a conical micro-autosampler vial and kept at 4° C. in the autosampler cooling tray. 10 μL of this sample was injected into the HPLC system.
The separation of redox and methylation pathway metabolites was accomplished using an Agilent Eclipse XDB-C8 analytical column (3×150 mm; 3.5 μm) and an Agilent Eclipse XDB-C8 (4.6×12.5 mm; 5 μm) guard column. Two mobile phases were used: Mobile Phase A was 0% acetonitrile, 25 mM sodium phosphate, 1.4 mM 1-octanesulfonic acid, adjusted to pH 2.65 with phosphoric acid. Mobile Phase B was 50% acetonitrile. The flow rate was initially set at 0.6 mL/min and a step gradient was used: 0-9 min 0% B, 9-19 min 50% B, 19-30 min 50% B. The column was then equilibrated with 5% B for 12 min prior to the next run. Temperature was maintained at 27° C. The electrochemical detector was an ESA CoulArray with BDD Analytical cell Model 5040 and the operating potential was set at 1500 mV. Sample concentrations were determined from the peak areas of metabolites using standard calibration curves and ESA-supplied HPLC software. Sample concentrations were normalised against protein content. In some cases samples were diluted in mobile phase as needed or up to 50 μl of sample was injected to assure that thiol levels were within the range of the standard curve.

[2] = tested on: SH-SY5Y human neuronal cells
Protocol: (§2) Pre-treatment in cells was performed for different time points for 30 min, 4, 24 and 48 h as described previously (Trivedi M., et al.; Mol. Pharm., 2014). Briefly, SH-SY5Y human neuronal cells and Caco-2 Gut epithelial cells were plated in six-well plates and were pretreated with drugs and incubated for various times prior to measuring uptake. Media were aspirated and cells were washed with 600 μL of HBSS at 37° C. Non-radioactive HBSS was aspirated, replaced with 600 μL of 37° C. HBSS containing [^35S]-cysteine, (1 μCi/1 mL), 10 μM unlabelled cysteine and 100 μM DTT, and the cells were incubated for 5 min. The [^35S]-cysteine/HBSS mixture was aspirated and treatment was terminated by two washes with ice-cold HBSS. Cells were then lysed with 600 μL of dH2O, scraped, collected in 1.5 mL microcentrifuge tubes, and sonicated for 10 s. 100 μL of each sample was aliquoted for protein assay. 200 μL of each sample (in triplicate) was aliquoted into scintillation vials with 4 mL of scintillation fluid, vortexed, and counted for radioactivity, normalized against protein content. […] Each * symbol in these Figures indicates a statistically significant difference (p<0.05) compared against the untreated control, and each #symbol indicates a statistically significant difference (p<0.005) compared against the untreated control.

[3] = tested on: Caco-2 Gut epithelial cells; conditions: read-out: IC50 inhibition of cysteine uptake; GI epithelial cells
Protocol: as §2

SH-SY5Y cells [4] = assay: Global DNA methylation by MBD-seq; type: cell-based, human; conditions: after BCM-7 exposure
Protocol: as §1
Briefly, genomic DNA was extracted from samples with the Easy DNA kit (Invitrogen K1800-01) using the appropriate protocol for cell lines. Fragmentation was performed on Covaris S2 with the following settings: duty cycle 10%, intensity 5, 200 cycles per burst during 200 sec. Fragments were obtained having an average length of 200 bp. […] DNA with an input from 5-3 3 μg was analysed on the Agilent 2100 using a DNA 1000 chip. […] The concentrations of fragmented and captured DNA were determined on a Fluostar Optima plate reader with the Quant-IT PicoGreen dsDNA Assay Kit (Invitrogen P7589) at 480/520 nm. […]
The Illumina library amplification index protocol was used with the following alterations: 22 μl DNA was used and performed 21 cycles run. […] 1 μl was applied to a Agilent 2100 HS DNA chip and the concentration was determined by smear analysis on the Agilent 2100. […]

[5] = tested on: colon myeloperoxidase (MPO) activity; assay: Colon MPO activity in rats fed A1/A2 diets; type: in vivo, Wistar rats
Protocol: (§3) Seventy two weaned (four week old) male Wistar rats were used. Following a 7-day acclimatisation period on a control diet, the rats were fed for either 12 or 60 hours with one of three diets: 100% A1 diet, 100% A2 diet, control diet (n=6 per treatment). The protein component of the diets were derived from skim milk (for the A1 and A2 diets) and on egg white (for the non-milk protein control diet), and were balanced for energy and macronutrient composition (see Table 1). Fifteen minutes before the end of the time period, rats received either naloxone or saline (control) via intra-peritoneal injection, and were then orally gavaged with a non-digestible tracer, titanium dioxide. Faecal and urine samples were collected at 7 time points over the following 24 hours, and stored at −20° C. (faecal) or −80° C. (urine) until they were analysed.
(§4) Colon tissue from the rats fed according to Example 1 was quantified for myeloperoxidase (MPO) activity based on an established method (Grisham, M. B., et al., Methods Enzymol., 1990, 186:729-742). Colon tissue (50 mg) was homogenised, partitioned via centrifugation, ruptured by ultrasonic probe and subjected to a freeze-thaw cycle. Endogenous MPO catalyses H2O2-dependent oxidation of 3,3′,5,5′-tetramethyl-benzidine substrate measured colourimetrically at 562 nm. […]

[6] = tested on: jejunum myeloperoxidase (MPO) activity; assay: Jejunum MPO activity in rats fed A1/A2 diets; type: in vivo, Wistar rats; conditions: on consumption of beta-casein A1
Protocol: as §3, §4
In this example, tissue samples taken from the jejunum were analysed. […]

colon tissue = assay: Intestinal histology of colon sections; type: in vivo, Wistar rats; conditions: 60 hour naloxone group, A2-fed versus A1-fed rats, P<0.05
Protocol: as §3
The procedure used for measuring change in morphology in the gastrointestinal tract of rats is based on histological evaluation of haemoxylin and eosin stained tissue sections under a light microscope (Knoch, B. et al., J. Nutrigenet. Nutrigenomics, 2009, 2(1):9-28 and Barnett, M. P., BMC Immunol., 2010, 11:39). This method was applied to sections derived from colon tissue of rats fed either the 100% A1 or 100% A2 diets to determine the effects of the beta-casein variants on intestinal inflammation.

[7] = neuronal cells, 30 min, 4 h, 24 h

CN1CC[C@]23c4c5ccc(O)c4O[C@H]2[C@@H](O)C=C[C@H]3[C@H]1C5 [morphine]
DETs shared by both morphine and BCM-7 (SH-SY5Y cells [1]): 501
differentially expressed transcripts (DETs) (SH-SY5Y cells [1]): 7,592
cysteine levels (SH-SY5Y neuronal cells; [7]): time-dependent decreases

CC[C@H](C)[C@H](NC(=O)[C@@H]1CCCN1C(=O)CNC(=O)[C@@H]1CCCN1C(=O)[C@H](Cc1ccccc1)NC(=O)[C@@H]1CCCN1C(=O)[C@@H](N)Cc1ccc(O)cc1)C(=O)O [BCM-7, beta-casomorphin-7] (H-YPFPGPI-OH; N-terminus and C-terminus assumed)
receptor mediation of cysteine uptake inhibition ([2]; blockade by selective μ-antagonist (CTAP), not by delta antagonist (NTI)): μ-opioid receptor mediated
time at which inhibition of cysteine uptake was fully developed ([2]; neuronal cells and GI epithelial cells (FIG. 6)): 30 min
IC50 ([2]; read-out: IC50 inhibition of cysteine uptake, neuronal cells): 1.31 nM
IC50 [3]: 15.9 nM
DETs shared by both morphine and BCM-7 (SH-SY5Y cells [1]): 501
differentially expressed transcripts (DETs) (SH-SY5Y cells [1]): 1,467
epigenetic status (DNA methylation) of cytokines such as NFkappaB and interleukins such as IL1 (SH-SY5Y cells [4]): altered
epigenetic status of the MPO gene (SH-SY5Y cells [4]): alters the epigenetic status
ratio of SAM/SAH (methylation capacity) (SH-SY5Y neuronal cells; different time points): affected
GSH levels (SH-SY5Y neuronal cells; [7]): time-dependent decreases
cysteine levels (SH-SY5Y neuronal cells; [7]): time-dependent decreases
GSH/GSSG ratio (redox status) (SH-SY5Y neuronal cells; neuronal cells, over time): decreased

B1: beta-casein A1 (protein, UniProt P02666 16-224, looked up, variant P67H)
Beta-casein: RELEELNVPGEIVESLSSSEESITRINKKIEKFQSEEQQQTEDELQDKIHPFAQTQSLVYPFPGPIHNSLPQNIPPLTQTPVVVPPFLQPEVMGVSKVKEAMAPKHKEMPFPKYPVEPFTESQSLTLTDVENLHLPLPLLQSWMHQPHQPLPPTVMFPPQSVLSLSQSKVLPVPQKAVPYPQRDMPIQAFLLYQEPVLGPVRGPFPIIV
colon MPO activity ([5]; beta-casein A1-fed rats compared to beta-casein A2-fed rats): increased
effect on colon MPO activity in rats treated with naloxone ([5]; rats treated with naloxone): not observed
inflammation in the small intestine (jejunum MPO) [6]: no observable increase

B2: beta-casein A2 (protein, UniProt P02666 16-224, looked up)
Beta-casein: RELEELNVPGEIVESLSSSEESITRINKKIEKFQSEEQQQTEDELQDKIHPFAQTQSLVYPFPGPIPNSLPQNIPPLTQTPVVVPPFLQPEVMGVSKVKEAMAPKHKEMPFPKYPVEPFTESQSLTLTDVENLHLPLPLLQSWMHQPHQPLPPTVMFPPQSVLSLSQSKVLPVPQKAVPYPQRDMPIQAFLLYQEPVLGPVRGPFPIIV
notes: any beta-casein having proline at position 67
histology score (colon tissue): significantly higher score

Reference: patent publication US11911439B2, “Beta-casein A2 and prevention of inflammation of the bowel” (THE A2 MILK COMPANY LIMITED, priority 2013, dated 2024)
